From patent US20120065063A1, “3-Aryl-4-(2,6-dimethylbenzylidene)isoxazol-5(4H)-ones as Fungicides” (Bayer CropScience AG, priority 2010, published 2012)

Key:
Venturia inaequalis = assay: Venturia test (apple)/protective; format: in vivo; conditions: protective, 100 ppm, evaluation 10 days after inoculation
Method: Venturia Test (Apple)/Protective [table] To produce an appropriate active compound formulation, 1 part by weight of active compound is mixed with the specified amounts of solvent and emulsifier, and the concentrate is diluted with water to the desired concentration. To test for protective efficacy, young plants are sprayed with the active compound formulation at the stated application rate. After the spray coating has dried on, the plants are inoculated with an aqueous conidia suspension of the apple scab pathogen Venturia inaequalis and then remain in an incubation cabin at about 20° C. and 100% relative atmospheric humidity for 1 day. The plants are then placed in the greenhouse at about 21° C. and a relative atmospheric humidity of about 90%.

[1] = tested on: Blumeria graminis f.sp. tritici; assay: Blumeria test (wheat)/protective; format: in vivo; conditions: protective, 1000 ppm, evaluation 7 days after inoculation
Method: Blumeria Test (Wheat)/Protective [table] To produce an appropriate active compound formulation, I part by weight of active compound is mixed with the specified amounts of solvent and emulsifier, and the concentrate is diluted with water to the desired concentration. To test for protective activity, young plants are sprayed with the preparation of active compound at the stated application rate. After the spray coating has dried on, the plants are dusted with spores of Blumeria graminis f.sp. tritici.

Plasmopara viticola = assay: Plasmopara test (grapevine)/protective; format: in vivo; conditions: protective, 100 ppm, evaluation 6 days after inoculation
Method: Plasmopara Test (Grapevine)/Protective [table] To produce an appropriate active compound formulation, I part by weight of active compound is mixed with the specified amounts of solvent and emulsifier, and the concentrate is diluted with water to the desired concentration. To test for protective efficacy, young plants are sprayed with the active compound formulation at the stated application rate. After the spray coating has dried on, the plants are inoculated with an aqueous spore suspension of Plasmopara viticola and then remain in an incubation cabin at about 20° C. and 100% relative atmospheric humidity for 1 day. The plants are then placed in a greenhouse at about 21° C. and about 90% atmospheric humidity for 4 days. The plants are then moistened and placed in an incubation cabin for 1 day.

Alternaria solani = assay: Alternaria test (tomato)/protective; format: in vivo; conditions: protective, 500 ppm, evaluation 7 days after inoculation
Method: Alternaria Test (Tomato)/Protective [table] To produce an appropriate active compound formulation, 1 part by weight of active compound is mixed with the specified amounts of solvent and emulsifier, and the concentrate is diluted with water to the desired concentration. To test for protective activity, young tomato plants are sprayed with the preparation of active compound at the stated application rate. 1 day after the treatment, the plants are inoculated with a spore suspension of Alternaria solani and then remain at 100% relative humidity and 20° C. for 24 h. The plants then remain at 96% relative atmospheric humidity and a temperature of 20° C.

Sphaerotheca fuliginea = assay: Sphaerotheca test (cucumber)/protective; format: in vivo; conditions: protective, 500 ppm, evaluation 7 days after inoculation
Method: Sphaerotheca Test (Cucumber)/Protective [table] To produce an appropriate active compound formulation, 1 part by weight of active compound is mixed with the specified amounts of solvent and emulsifier, and the concentrate is diluted with water to the desired concentration. To test for protective activity, young cucumber plants are sprayed with the preparation of active compound at the stated application rate. 1 day after the treatment, the plants are inoculated with a spore suspension of Sphaerotheca fuliginea. The plants are then placed in a greenhouse at 70% relative atmospheric humidity and a temperature of 23° C.

[2] = log P by HPLC on reversed-phase columns (EEC directive 79/831 Annex V.A8); format: physicochemical; conditions: acidic range pH 2.7, 0.1% aqueous formic acid/acetonitrile
Method: The log P values were measured according to EEC directive 79/831 Annex V.A8 by HPLC (High Performance Liquid Chromatography) on reversed-phase columns (C 18), using the method below:
The determination was carried out in the acidic range at pH 2.7 using the mobile phases 0.1% aqueous formic acid and acetonitrile; linear gradient from 10% acetonitrile to 95% acetonitrile.

Meloidogyne incognita = assay: Meloidogyne test (spray treatment); format: in vivo; conditions: lettuce, 20 ppm
Method: Meloidogyne Test (Spray Treatment) [table] To prepare a suitable active compound preparation, 1 part by weight of active compound is mixed with the stated amount of solvent and the concentrate is diluted with water to the desired concentration. Containers are filled with sand, solution of active compound, Meloidogyne incognita egg/larvae suspension and lettuce seeds. The lettuce seeds germinate and the plants develop. On the roots, galls are formed. After the desired period of time, the nematicidal action is determined in % by the gall formation. 100% means that no galls have been found; 0% means that the number of galls on the treated plants corresponds to that of the untreated control.

Spodoptera frugiperda = Spodoptera frugiperda test (spray treatment); format: in vivo; conditions: maize leaf discs, 500 g/ha
Method: Spodoptera frugiperda Test (Spray Treatment) [table] To produce a suitable preparation of active compound, 1 part by weight of active compound is mixed with the stated amounts of solvents and emulsifier, and the concentrate is diluted with emulsifier-containing water to the desired concentration. Discs of maize leaves (Zea mays) are sprayed with an active compound preparation of the desired concentration and, after drying, populated with caterpillars of the armyworm (Spodoptera frugiperda). After the desired period of time, the effect in % is determined. 100% means that all caterpillars have been killed; 0% means that none of the caterpillars have been killed.

Leptosphaeria nodorum = assay: In vitro test for determining the ED50 value with Leptosphaeria nodorum; format: cell-based; conditions: 50% inhibition of fungal growth, microtitre plates, 6 days, 20° C.
Method: In Vitro Test for Determining the ED50 Value with Leptosphaeria nodorum The cavities of 96-well microtitre plates are filled with 1.5 μl of a solution of the test compounds in DMSO. 150 μl of a glucose/peptone medium comprising the spores of the test fungus in a suitable concentration are introduced into each cavity. The test compounds in the microtitre cavities are used in concentrations of 20, 6, 2 and 0.6 ppm. The absorbance is determined photometrically at 620 nm. The microtitre plates are left at 20° C. and 85% relative atmospheric humidity for 6 days. Once the incubation time has passed, the growth of the test organisms is determined photometrically at a wavelength of 620 nm. The difference in absorbances before and after the incubation corresponds to the growth of the test fungi. Based on the difference of the absorbances at the various test concentrations and the difference of the absorbances of the untreated control, a dose/activity curve is calculated. The concentration required to inhibit fungal growth by 50% is determined and reported as ED50 value (=Effective Dose which causes 50% inhibition of growth) in ppm (=mg/l).

`CC1=NOC(=O)/C1=C\c1ccco1` [Compound A-8] gave an efficacy (Venturia inaequalis) of 6%, an efficacy [1] of 29% and an efficacy (Plasmopara viticola) of 28%. The efficacy (Alternaria solani) was 0% and the efficacy (Sphaerotheca fuliginea) was 0%.
For `O=C1ON=C(c2ccccc2)C1=Cc1ccc(Cl)cc1` [Compound A-2], the efficacy (Venturia inaequalis) was 16%, the efficacy [1] was 29% and the efficacy (Plasmopara viticola) was 38%. For the same molecule, the efficacy (Alternaria solani) was 0% and the efficacy (Sphaerotheca fuliginea) was 20%.
With `Cc1cc(C)c(C=C2C(=O)ON=C2c2ccc(Cl)cc2)c(C)c1` [Compound I-70] the “log P” value [2] was 4.50 and the “activity (nematicidal action by gall formation)” value (Meloidogyne incognita) was ≥ 80%.
Work on `CC1=NOC(=O)C1=Cc1ccccc1` [Compound A-3] yielded an efficacy (Venturia inaequalis) of 48%, an efficacy [1] of 57% and an efficacy (Plasmopara viticola) of 55%. The efficacy (Alternaria solani) was 0% and the efficacy (Sphaerotheca fuliginea) was 30%.
For `Cc1cc(C)c(C=C2C(=O)ON=C2c2c(F)cccc2F)c(C)c1` [Compound I-24], the “log P” value [2] was 4.09 and the “activity (caterpillars killed)” value (Spodoptera frugiperda) was ≥ 80%.
Work on `COc1ccc(C=C2C(=O)ON=C2C)cc1` [Compound A-5] yielded an efficacy (Venturia inaequalis) of 59%, an efficacy [1] of 29% and an efficacy (Plasmopara viticola) of 40%. It also gave an efficacy (Alternaria solani) of 0% and an efficacy (Sphaerotheca fuliginea) of 40%.
For `CC1=NOC(=O)C1=Cc1ccc(N(C)C)cc1` [Compound A-7], the efficacy (Venturia inaequalis) was 0%, the efficacy [1] was 0% and the efficacy (Plasmopara viticola) was 45%. For the same molecule, the efficacy (Alternaria solani) was 0% and the efficacy (Sphaerotheca fuliginea) was 10%.
`O=C1ON=C(c2ccccc2)C1=Cc1ccccc1Cl` [Compound A-6] gave an efficacy (Venturia inaequalis) of 14%, an efficacy [1] of 29% and an efficacy (Plasmopara viticola) of 38%. It also gave an efficacy (Alternaria solani) of 0% and an efficacy (Sphaerotheca fuliginea) of 50%.
In the case of `CC1=NOC(=O)C1=Cc1ccc(C)cc1` [Compound A-4], the efficacy (Venturia inaequalis) was 9%, the efficacy [1] was 43% and the efficacy (Plasmopara viticola) was 35%. For the same molecule, the efficacy (Alternaria solani) was 0%, the ED50 (Leptosphaeria nodorum) was 14 ppm and the efficacy (Sphaerotheca fuliginea) was 30%.
